From patent US6090605A, “Purified porcine kidney L-fucose kinase” (The Board of Trustees of the University of Arkansas, priority 1998, dated 2000)
Entries after “also recorded” stand apart in the source; their conditions may differ. Each block holds one compound with its values, some of them ahead of it.

What was measured:
pig kidney fucokinase [1] = biological target: T1, pig kidney fucokinase (Sus scrofa, UniProt I3LTC2); assay: Specificity of fucokinase for phosphate donor (nucleotides); type: biochemical; settings: for activity as phosphate donor (in words): nucleotide added at 1 mM; for Specific Activity: nucleotide added at 1 mM as phosphate donor
T1 construct: L-Fucokinase was purified to apparent homogeneity from the cytosolic fraction of pig kidney; from tissue; host or cells: pig kidney, cytosolic fraction
T1 sequence (I3LTC2 1-1083): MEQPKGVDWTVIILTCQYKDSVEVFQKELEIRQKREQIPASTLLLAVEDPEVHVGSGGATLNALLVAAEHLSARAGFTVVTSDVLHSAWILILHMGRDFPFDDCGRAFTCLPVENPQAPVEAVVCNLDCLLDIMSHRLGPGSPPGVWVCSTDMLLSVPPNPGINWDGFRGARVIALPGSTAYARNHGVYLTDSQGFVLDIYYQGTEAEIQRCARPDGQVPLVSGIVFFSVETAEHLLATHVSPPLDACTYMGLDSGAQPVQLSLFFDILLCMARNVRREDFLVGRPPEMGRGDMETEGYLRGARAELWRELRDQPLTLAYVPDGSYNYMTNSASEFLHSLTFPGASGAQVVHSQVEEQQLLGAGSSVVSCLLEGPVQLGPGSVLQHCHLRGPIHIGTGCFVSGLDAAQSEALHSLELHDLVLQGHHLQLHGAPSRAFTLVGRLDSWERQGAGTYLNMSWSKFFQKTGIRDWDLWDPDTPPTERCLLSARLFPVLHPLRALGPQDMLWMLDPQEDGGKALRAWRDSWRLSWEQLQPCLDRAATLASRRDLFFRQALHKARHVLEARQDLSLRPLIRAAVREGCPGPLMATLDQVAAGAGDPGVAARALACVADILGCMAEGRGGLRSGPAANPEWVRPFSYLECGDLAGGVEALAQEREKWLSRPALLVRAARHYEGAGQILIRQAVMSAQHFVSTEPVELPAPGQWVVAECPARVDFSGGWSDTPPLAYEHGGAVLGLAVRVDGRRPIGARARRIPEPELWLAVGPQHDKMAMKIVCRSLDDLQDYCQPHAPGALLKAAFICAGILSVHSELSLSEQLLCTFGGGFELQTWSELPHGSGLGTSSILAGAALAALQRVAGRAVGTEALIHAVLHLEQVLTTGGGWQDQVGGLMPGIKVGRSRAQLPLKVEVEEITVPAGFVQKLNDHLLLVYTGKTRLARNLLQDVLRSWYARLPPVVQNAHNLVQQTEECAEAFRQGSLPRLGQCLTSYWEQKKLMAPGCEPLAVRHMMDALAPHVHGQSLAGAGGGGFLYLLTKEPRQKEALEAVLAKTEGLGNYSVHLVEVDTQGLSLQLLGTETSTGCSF
Method: (§1) Fucokinase activity was assayed by measuring the production of L-fucose-1-Pfrom [^3 H]L-fucose and ATP. The incubation mixtures contained the following components (final concentrations) in a total volume of 150 μl: L-fucose, 0.1 mM; ATP, 5 mM; MgSO4, 5 mM; Tris-HCl buffer, pH 8.0, 65 mM; and various amounts of enzyme at the different stages of purification. Incubations were at 37° C. for 10 minutes, and reactions were terminated by heating the reaction mixtures in a boiling water bath for 1 minute. The incubation mixtures were then applied to a column of DE-52 contained in a Pasteur pipette, and the column was washed with at least 5 column volumes of 10 mM (NH4)HCO3 to remove the unbound material. The [^3 H]fucose-1-P was then eluted with 500 mM (NH4)HCO3. Aliquots of the eluates were assayed for their radioactive content by subjecting a portion to scintillation counting.
The specificity of the nucleoside triphosphate was also examined by testing the ability of a variety of nucleotides to serve as phosphate donors in the phosphorylation of [^3 H]L-fucose. […] In addition, no activity is observed with any nucleoside diphosphates or monophosphates.

pig kidney fucokinase [2] = biological target: T1, pig kidney fucokinase; assay: Effect of metal ions on fucokinase activity; type: biochemical
Method: Increasing concentrations of the metal ions shown were added to incubations of the purified enzyme with ^3 H-fucose and ATP, and the formation of fucose-1-P was measured as described below. Metal ions tested were as follows: Mg^++, filled circles; Fe^++, filled diamonds; Co^++, filled triangles; Mn^++, filled squares.
as §1
Co^++ and Mn^++ were also stimulatory with maximum activity occurring at about 3 to 5 mM, but the maximum activity was only about 25% to 33% of that observed with Mg^++.

[3] = tested on: pig liver L-fucokinase preparation; settings: cited from earlier work
[4] = biological target: T2, pig kidney fucokinase (110 kDa band) (Sus scrofa, UniProt I3LTC2); assay: Photoaffinity labeling of the fucokinase with 8-azido-ATP[32P]; type: binding; settings: for labeling of the 110 kDa protein by photoprobe (in words): incubation with probe, exposure to UV light
T2 construct: L-Fucokinase was purified to apparent homogeneity from the cytosolic fraction of pig kidney; from tissue; host or cells: pig kidney, cytosolic fraction
T2 sequence (I3LTC2 1-1083): T1 sequence (I3LTC2 1-1083)
Method: The purified enzyme was incubated for 20 seconds with azido-ATP[^32 P], and the mixture was exposed to UV for 90 seconds. The reaction was stopped by adding loading buffer and the mixture subjected to SDS-PAGE. Radioactive bands were detected by exposure to film. Lanes are as follows: Lane 1, Probe+enzyme, but no UV; Lane 2, Probe+enzyme+UV; Lanes 3 through 6. Probe+enzyme+0.3, 0.6, 0.9, and 1.2 mM ATP+exposure to UV light; lanes 7 and 8, 0.6 and 1.2 mM GTP+probe+exposure to UV light: lanes 9 and 10, 0.6 and 1.2 mM ITP+probe+exposure to UV light. In lanes 11 and 12, the enzyme was incubated with N3 -GTP[^32 P ] and then exposed to UV light (lane 12) or not exposed to UV light (lane 11). Lane 13 is a control of enzyme+N3 -ATP[^32 P]+exposure to UV light.
Enzyme, at various stages of purity, was mixed with 8-azido-ATP[^32 P] in buffer, and allowed to incubate for 20 sec. in an ice bath. 8-Azido-ATP[^32 P] was prepared as previously described (16). After incubation, the reaction mixture was exposed to short wave UV light for about 90 sec. to activate the azido group, and the protein was subjected to SDS gel electrophoresis to separate the proteins. The gels were dried and exposed to film to locate the radioactive bands and were also stained with Coomassie blue to locate the various proteins. The specificity of the labeling was determined by examining the effect of various concentrations of unlabeled ATP or other nucleotides on the labeling of the protein by N3 -ATP[^32 P]. Various controls were also run, such as one in which exposure to UV was omitted.
Lanes 11-13 of FIG. 3 show the results of another experiment designed to determine whether 8-N3 -GTP[^32 P] could label the fucokinase. […] These experiments indicate that the fucokinase is quite specific for ATP.

pig kidney fucokinase [5] = biological target: T1, pig kidney fucokinase; assay: Inhibition of [3H]L-fucose phosphorylation by unlabeled monosaccharides; type: biochemical; settings: for Relative Activity (%): unlabeled monosaccharide 500 μM, radiolabeled L-fucose substrate 100 μM; for inhibition of phosphorylation of [3H]L-fucose (in words): unlabeled sugar 500 μM
Method: as §1
Although it was possible to get a reasonable assessment of the sugar specificity of the kinase from the above experiment, it was not possible to test sugars such as D-fucose, since these sugars are not available in radioactive form. Thus, these unlabeled sugars were tested for their ability to inhibit the phosphorylation of [^3 H]L-fucose. The rationale for this experiment is that a sugar that inhibits the phosphorylation of L-fucose would probably compete with L-fucose for the phosphorylation (i.e., active) site.

pig kidney fucokinase [6] = biological target: T1, pig kidney fucokinase; assay: Sugar specificity of purified fucokinase (radiolabeled sugars as phosphate acceptors); type: biochemical; settings: for Specific Activity: radiolabeled sugar 100 μM as phosphate acceptor
Method: as §1
The specificity of the kinase for various sugar substrates was examined in two different ways. In the first set of experiments, various radiolabeled sugars were tested as phosphate acceptors for the purified enzyme using the ion-exchange chromatography method for assay of activity. […] D-Arabinose, which has the same configuration at carbons 1 through 4 as L-fucose, was also a reasonable substrate for phosphorylation, and was about 10% as effective as L-fucose. On the other hand, all of the other sugars were ineffective as phosphate acceptors.

Compound: [Ca+2] [Ca^++]
stimulation of enzyme activity by metal ion (in words) (pig kidney fucokinase [2]): inactive

Compound: Nc1ncnc2c1ncn2[C@@H]1O[C@H](COP(=O)(O)OP(=O)(O)OP(=O)(O)O)[C@@H](O)[C@H]1O [ATP]
inhibition of labeling of the 110 kDa band by N3-ATP[32P] (in words) ([4]; unlabeled ATP 0.3-1.2 mM, GTP, ITP 0.6 and 1.2 mM): inhibited in a dose-dependent manner
Specific Activity (pig kidney fucokinase [1]): 4.05 nmoles/mg protein/10 min

Compound: Nc1ccn([C@@H]2O[C@H](COP(=O)(O)OP(=O)(O)O)[C@@H](O)[C@H]2O)c(=O)n1 [CDP]
activity as phosphate donor (in words) (pig kidney fucokinase [1]): Inactive

Compound: [N-]=[N+]=Nc1nc2c(N)ncnc2n1[C@@H]1O[C@H](COP(=O)(O)OP(=O)(O)OP(=O)(O)O)[C@@H](O)[C@H]1O [N3 -ATP[^32 P], 8-azido-ATP[^32 P]]
labeling of the 110 kDa protein by photoprobe (in words) [4]: did result in labeling of the 110 kDa protein

Compound: [Hg+2] [Hg^++]
stimulation of enzyme activity by metal ion (in words) (pig kidney fucokinase [2]): inactive
effect on activity when added to incubations containing Mg++ (in words) (pig kidney fucokinase [2]; metal ion at 1 mM): completely inhibited activity

Compound: Nc1ncnc2c1ncn2[C@@H]1O[C@H](COP(=O)(O)OP(=O)(O)O)[C@@H](O)[C@H]1O [ADP]
activity as phosphate donor (in words) (pig kidney fucokinase [1]): Inactive

Now from value to compound, other results behind:

activity as phosphate donor (in words) (pig kidney fucokinase [1]): Inactive
Compound: O=c1ccn([C@@H]2O[C@H](COP(=O)(O)OP(=O)(O)O)[C@@H](O)[C@H]2O)c(=O)[nH]1 [UDP]

Specific Activity (pig kidney fucokinase [1]): 0.04 nmoles/mg protein/10 min
Compound: O=c1ccn([C@@H]2O[C@H](COP(=O)(O)OP(=O)(O)OP(=O)(O)O)[C@@H](O)[C@H]2O)c(=O)[nH]1 [UTP]
use as phosphate donor (in words) [3]: could also use

stimulation of enzyme activity by metal ion (in words) (pig kidney fucokinase [2]): inactive
Compound: [Fe+3] [Fe^+++]

Relative Activity (%) (pig kidney fucokinase [5]): 80%
activity as phosphate acceptor (in words) (pig kidney fucokinase [6]; purified enzyme): active as phosphate acceptors
rate of phosphorylation relative to L-fucose (pig kidney fucokinase [6]; purified enzyme, sugar as phosphate acceptor): about 10%
Specific Activity (pig kidney fucokinase [6]): 1.1 nmole/mg protein
Compound: O=C[C@@H](O)[C@H](O)[C@H](O)CO [D-arabinose]
inhibition of phosphorylation of [3H]L-fucose (in words) (pig kidney fucokinase [5]): inhibited although considerably less so than the L-fucose

Relative Activity (%) (pig kidney fucokinase [5]): 102%
inhibition of phosphorylation of [3H]L-fucose (in words) (pig kidney fucokinase [5]): ineffective as inhibitors
Compound: C[C@@H](O)[C@H](O)[C@H](O)[C@@H](O)C=O [D-fucose]

Relative Activity (%) (pig kidney fucokinase [5]): 96%
Specific Activity (pig kidney fucokinase [6]): 0 nmole/mg protein
Compound: O=C[C@H](O)[C@H](O)[C@H](O)CO [D-ribose]
phosphorylation of sugar by the about 70-fold purified preparation (in words) [3]: considerable activity for phosphorylating

Relative Activity (%) (pig kidney fucokinase [5]): 23%
inhibition of phosphorylation of [3H]L-fucose (in words) (pig kidney fucokinase [5]): reasonable inhibitor
Specific Activity (pig kidney fucokinase [6]): 11.8 nmole/mg protein
Compound: C[C@H](O)[C@@H](O)[C@@H](O)[C@H](O)C=O [L-fucose]
activity as phosphate acceptor (in words) (pig kidney fucokinase [6]; purified enzyme): by far the best substrate; also recorded: active as phosphate acceptors

stimulation of enzyme activity by metal ion (in words) (pig kidney fucokinase [2]): inactive
Compound: [Mo+2] [Mo^++]

labeling of the 110 kDa protein by photoprobe (in words) [4]: did not give rise to labeled protein
Compound: 8-N3 -GTP[^32 P]
